In patent US11203578B2, “Oxadiazole derivatives for the treatment of genetic diseases due to nonsense mutations” (UNIVERSITA' DEGLI STUDI DIPALERMO, priority 2017, dated 2021):
Several values for one entry are separate records, joined by “and”; a condition that tells them apart may be missing. Equal values may be shown once.

Tests used:
[1] = system: pFLuc-opal (UGA stop mutation); assay: FLuc cell-based readthrough assay in HeLa FLuc-opal transfected cells; design: key to Pharm Set: Active: as active, compounds with FLUC values >4.52 (ATALUREN FLUC value); Inactive: as inactives, compounds with FLUC values ≤4.00; Moderate: as moderate actives, compounds with 4.39≤FLUC values ≤4,51; details: for luciferase activity: 12 μM, 24 hours treatment, pFluc-opal HeLa cells, compared to untreated; for Pharm Set: class of activity related to the FLUC values
Source text: The results disclosed in (Pibiri I., Lentini L., Tutone M., Melfi R., Pace A., Di Leonardo A. Exploring the readthrough of nonsense mutations by non-acidic Ataluren analogues selected by ligand-based virtual screening. Eur. J. Med. Chem. 122 (2016) 429-435) have been refined with 3D-QSAR (quantitative structure-activity relationships) pharmacophore modelling. The endpoint to build QSAR models was the luciferase activity known data. These values were converted to pFLUC (−log FLUC) values. In order to find the common pharmacophore hypothesis, we divided the 24 compounds in three different classes of activity related to the FLUC values (Pharm set). We considered as active, compounds with FLUC values >4.52 (ATALUREN FLUC value), as inactives, compounds with FLUC values ≤4.00, and as moderate actives, compounds with 4.39≤FLUC values ≤4,51. Dataset was randomly split into a training set (19 compounds) for models generation, and test set (5 compounds) for the validation of developed models, as reported in Table 1.
To ascertain the effectiveness of the newly synthesized ataluren analogues in promoting the readthrough of premature termination codons was used the FLuc cell-based assay. To this aim HeLa cells were transfected transiently with the plasmids pFLuc-wild type (control) and pFLuc-opal (UGA stop mutation) (NIH Chemical Genomics Center, National Institutes of Health, Bethesda, USA). FLuc gene expression was then measured by luminescence.

nsCFTR(G542X-opal) = assay: Immunofluorescence analysis of CFTR in nsCFTR(G542X-opal) FRT cells; format: cell-based, human; details: 12 μM, 24 hours
Protocol: To work in a cell system containing exclusively nonsense mutations and in particular the more representative CFTR nonsense mutation, the G542X, FRT cells were engineered with a vector expressing nsCFTR (nonsense). To this aim, Site Directed Mutagenesis of the full-length CFTR cDNA cloned in the pTracer-Zeocin (pTCF-wild type) vector (Gaslini Hospital Genova, Italy) was performed (CFTR DNA available at NCBI Reference Sequence: NG_016465.4). To substitute the Glicine 542 coding codon GGA with a stop codon, was introduced a single nucleotide mutation. The first guanine of the codon, position 1624 of the cDNA, was changed in a thymine to introduce an opal nonsense mutation. We amplified the plasmid harbouring cDNA with the following primers: […]
To further evaluate the efficacy of NV914, NV848, NV930, FRT cells were transfected with the pTRACER vectors containing either the wild type CFTR or the nsCFTR(G542X-opal) cDNA and selected by Zeocin resistance. The advantage of the use of these cells is that they don't express cAMP dependent channels (as CFTR) or CFTR protein. The expression of the human CFTR wild type and nsCFTR(G542X-opal) in transfected FRT cells was evaluated by qRT-PCR and Western blot, as shown in FIG. 5.
The same FRT cells were then treated with NV914, NV848, NV930 (12 μM), and ATALUREN (12 μM) (as positive control) for 24 hours and the expression of the human CFTR wild type and nsCFTR(G542X-opal) was again evaluated by immunofluorescence analysis.
FRT cells transfected with a pTracer nsCFTR-G542X-opal vector the treated with NV848, NV914, NV930 (12 μM), and ATALUREN (12 μM) as positive control, for 24 hours and the expression of the human CFTR wild type and nsCFTR (nsCFTR-G542X-opal) was evaluated by immunofluorescence analysis.
In details, immunofluorescence analysis was used to detect the CFTR protein following the readthrough of the UGA stop codon in nsCFTR(opal) FRT cells untreated, treated with G418 as positive contro) and with PTC124 and NV848, Nv914, NV930 for 24 h. […] Nuclei (blue) were DAPI stained.

nsCFTR-R553X-opal = assay: Immunofluorescence analysis of CFTR in nsCFTR-R553X-opal FRT cells; format: cell-based, human; details: 12 μM, 24 hours
Protocol: (§1) FRT cells were also engineered with a vector expressing nsCFTR (nonsense). To this aim, Site […] Directed Mutagenesis of the full-length CFTR cDNA cloned in the pTracer Zeocin (pTCF-wild type) vector (provided by Gaslini Hospital Genova, Italy) was performed, the CFTR DNA is available at NCBI Reference Sequence NG_016465.4. With the aim of introducing in the CFTR cDNA single base mutations c1654t or c1657t to convert, respectively, […] 552 (caa>taa ochre) or Arginine 553 (cga>tga opal) in nonsense codons, site-directed mutagenesis of the full-length cDNA cloned in the pTracer Zeocin (pTCF-wild type) vector (provided by Gaslini Hospital Genova, Italy) was performed (CFTR DNA available at NCBI Reference Sequence: NG_016465.4). The pTCF-wild type vector was amplified by PCR with the following primers: […]
(§2) To further evaluate the efficacy of NV848, NV914 and NV930 FRT cells were transfected with the pTracer vectors containing either the WT-CFTR (CFTRWT) or the R553X-CFTR and the Q552X-CFTR (nsCFTR-R553X-opal, nsCFTR-Q552X ochre) human cDNA and selected by Zeocin resistance. The expression of the CFTRWT and nsCFTR CFTR (nsCFTR-R553X-opal, nsCFTR-Q552X ochre) in transfected FRT cells was evaluated by qRT-PCR. The nsCFTR-Q552X ochre, nsCFTR-R553X-opal FRT transfected cells were treated with NV848, (12 μM), and ATALUREN (12 μM) as positive control, for 24 hours and the expression of the human CFTR was evaluated by immunofluorescence analysis.

nsCFTR-Q552X ochre = assay: Immunofluorescence analysis of CFTR in nsCFTR-Q552X ochre FRT cells; format: cell-based, human; details: 12 μM, 24 hours
Protocol: as §1, §2

HeLa cells = assay: Cytotoxic effects and impact on cell proliferation in HeLa cells; format: cell-based; details: 12 μM
Protocol: HeLa cells were used to determine the possible cytotoxic effects of our compounds and the impact on cell proliferation. In FIG. 7 are reported the percentages of dead cells and proliferating cells after treatment with 12 μM compounds and 12 μM ATALUREN.

[2] = system: pFLuc-opal (UGA stop mutation); details: luciferase activity known data, converted to pFLUC (−log FLUC); literature [1], [2]; cited from earlier work

| SMILES | luciferase activity [1] | CFTR full-length expression and membrane localization (nsCFTR(G542X-opal)) | CFTR full-length expression and membrane localization (nsCFTR-R553X-opal) | CFTR full-length expression and membrane localization (nsCFTR-Q552X ochre) | dead cells (HeLa cells; 24 h) [%] | dead cells (HeLa cells; 72 h) [%] | RLU values Exp. [2] | Pharm Set [1] |
| --- | --- | --- | --- | --- | --- | --- | --- | --- |
| CC(=O)Nc1noc(C)n1 [NV848, 3-acetylamino-5-methyl-1,2,4-oxadiazole] | significant increase of luciferase activity | induced the CFTR full-length expression and membrane localization | induced the CFTR full-length expression and membrane localization | induced the CFTR full-length expression and membrane localization | 7 | 6 | – | – |
| CCOC(=O)c1noc(-c2ccccc2)n1 [NV930, ethyl 5-phenyl-1,2,4-oxadiazole-3-carboxylate] | significant increase of luciferase activity | induced the CFTR full-length expression and membrane localization | induced the CFTR full-length expression and membrane localization | induced the CFTR full-length expression and membrane localization | 2 | 4 | – | – |
| COC(=O)c1cccc(-c2noc(-c3cccc(F)c3F)n2)c1 [Compound 7-NV1149] | – | – | – | – | – | – | 4.103 | Inactive |
| O=C(Nc1noc(-c2c(F)c(F)c(F)c(F)c2F)n1)c1c(F)c(F)c(F)c(F)c1F [NV914, 2,3,4,5,6-pentafluoro-N-(5-(perfluorophenyl)-1,2,4-oxadiazol-3-yl)benzamide] | significant increase of luciferase activity | induced the CFTR full-length expression and membrane localization | induced the CFTR full-length expression and membrane localization | induced the CFTR full-length expression and membrane localization | 5 | 2 | – | – |
| COC(=O)c1cccc(-c2noc(-c3cc(F)c(F)cc3F)n2)c1 [Compound 4-NV1128, Methyl 3-(5-(2,4,5-trifluorophenyl)-1,2,4-oxadiazol-3-yl) benzoate)] | – | – | – | – | – | – | 4.397 | Moderate (as moderate actives, compounds with 4.39≤FLUC values ≤4,51) |
| COC(=O)c1cccc(-c2noc(-c3ccc(F)c(F)c3)n2)c1 [Compound 9-NV1175, Methyl 3-(5-(3,4-difluorophenyl)-1,2,4-oxadiazol-3-yl)ben-zoate)] | – | – | – | – | – | – | 4.269 | Moderate (as moderate actives, compounds with 4.39≤FLUC values ≤4,51) |
| O=C(O)c1cccc(-c2noc(-c3cccc(F)c3)n2)c1 [Compound 3-NV1133, 3-(5-(3-Fluorophenyl)-1,2,4-oxadiazol-3-yl)benzoic acid] | – | – | – | – | – | – | 4.628 | Active |
| O=C(O)c1cccc(-c2noc(-c3ccccc3F)n2)c1 [ATALUREN, 3-(5-(2-Fluorophenyl)-1,2,4-oxadiazol-3-yl)benzoic acid] | – | – | – | – | 4 | 7 | 4.52 and 4.528 | Active |
| COC(=O)c1cccc(-c2noc(-c3cccc(F)c3)n2)c1 [Compound 2-NV1127] | – | – | – | – | – | – | 4.477 | Moderate (as moderate actives, compounds with 4.39≤FLUC values ≤4,51) |
| COC(=O)c1cccc(-c2noc(-c3c(F)cccc3F)n2)c1 [Compound 11-NV1174, Methyl 3-(5-(2,6-difluorophenyl)-1,2,4-oxadiazol-3-yl)ben-zoate)] | – | – | – | – | – | – | 4.414 | Moderate (as moderate actives, compounds with 4.39≤FLUC values ≤4,51) |
